# Assay results reported in ChEMBL document CHEMBL5614434, “A Lysosome-Targeting hNEU1 Inhibitor Treats Myocardial Infarction: A Potential Therapeutic Breakthrough” (J Med Chem, 2024).
# Activity calls are given as the source filed them. The calls are words filed in the database; no cut-off is given here.
# Key:
# [1] = Metabolic stability in mouse liver microsomes assessed as parent compound remaining measured after 60 mins in presence of NADPH regenerating system by LC-MS/MS analysis; assay type: ADME, Microsome; settings: read-out: Stability
# H9c2 [2] = assay: Induction of autophagy in isoproterenol-induced rat H9c2 cells assessed as increase in LC3-I to LC3-II conversion by confocal microscopy based analysis; assay type: functional, cell-based
# H9c2 [3] = assay: Upregulation of Ho-1 level in isoproterenol-induced rat H9c2 cells at 0.01 to 1 uM by Western blot analysis; assay type: functional, cell-based; settings: dose 0.01-1 µM
# Mus musculus [4] = assay: Cardioprotective activity against isoproterenol-induced myocardial injury in C57/6J mouse model assessed as decrease in pericardial thickness at 15 mg/kg, ip pretreated with isoproterenol for 3 days followed by compound addition and measured after 3 days by H and E staining based analysis; assay type: functional, organism-based; settings: time 3.0 day
# H9c2 [5] = assay: Induction of autophagy in isoproterenol-induced rat H9c2 cells transfected with GFP-tagged LC3 assessed as increase in number of green fluorescence by confocal microscopy analysis; assay type: functional, cell-based
# [6] = Metabolic stability in mouse liver microsomes assessed as parent compound remaining measured after 0.5 mins in presence of NADPH regenerating system by LC-MS/MS analysis; assay type: ADME, Microsome; settings: read-out: Stability
# [7] = Permeability of compound in MDCK cells; assay type: ADME, cell-based, Canis lupus familiaris; settings: dog, read-out: permeability
# H9c2 [8] = assay: Cytotoxicity against rat H9c2 cells assessed as cell viability at 0.001 to 50 uM under normoxia condition by CCK-8 method; assay type: toxicity, cell-based; settings: h9c2, 50 µM, dose 0.001-50 µM
# H9c2 [9] = assay: Induction of apoptosis in isoproterenol-induced rat H9c2 cells assessed as late apoptotic cells at 0.1 micromol/L by annexin V-FITC and PI staining based flow cytometry analysis (reference value: 11.49%); assay type: toxicity, cell-based; settings: h9c2, 0.1 µM, dose 0.1 µmol/L
# H9c2 [10] = assay: Upregulation of cytochrome-c level in isoproterenol-induced rat H9c2 cells at 0.01 to 1 uM by Western blot analysis; assay type: functional, cell-based; settings: dose 0.01-1 µM
# [11] = Metabolic stability in mouse liver microsomes assessed as parent compound remaining measured after 0.5 mins in absence of NADPH regenerating system by LC-MS/MS analysis; assay type: ADME, Microsome; settings: read-out: Stability
# Mus musculus [12] = assay: Cardioprotective activity against isoproterenol-induced myocardial injury in C57/6J mouse model assessed as reduction in CK value in serum at 15 mg/kg, ip pretreated with isoproterenol for 3 days followed by compound addition and measured after 3 days by automatic biochemical analysis; assay type: functional, organism-based; settings: time 3.0 day
# [13] = AUClast in male C57/6J mouse at 15 mg/kg, ip measured upto 24 hrs by LC-MS/MS analysis; assay type: ADME, organism-based; settings: in vivo
# H9c2 [14] = assay: Inhibition of ROS production in isoproterenol-induced rat H9c2 cells assessed as reduction in DCF value at 0.1 uM by DCFH-DA staining based flow cytometry analysis (reference value: 371.9); assay type: functional
# H9c2 [15] = assay: Induction of autophagy in isoproterenol-induced rat H9c2 cells assessed as downregulation of P62 expression by Western blot analysis; assay type: functional, cell-based
# Mus musculus [16] = assay: Cardioprotective activity against isoproterenol-induced myocardial injury in C57/6J mouse model assessed as reduction in eosinophil count at 15 mg/kg, ip pretreated with isoproterenol for 3 days followed by compound addition and measured after 3 days; assay type: functional, organism-based; settings: time 3.0 day
# Mus musculus [17] = assay: Cardioprotective activity against isoproterenol-induced myocardial injury in C57/6J mouse model assessed as suppression of mTORC1 overexpression at 15 mg/kg, ip pretreated with isoproterenol for 3 days followed by compound addition and measured after 3 days by immunohistochemistry analysis; assay type: functional, organism-based; settings: time 3.0 day
# Mus musculus [18] = assay: Cardioprotective activity against isoproterenol-induced myocardial injury in C57/6J mouse model assessed as effect on cTNI level in serum at 15 mg/kg, ip pretreated with isoproterenol for 3 days followed by compound addition and measured after 3 days by automatic biochemical analysis; assay type: functional, organism-based; settings: time 3.0 day
# [19] = Half life in male C57/6J mouse at 15 mg/kg, ip measured upto 24 hrs by LC-MS/MS analysis; assay type: ADME, organism-based; settings: in vivo
# [20] = Metabolic stability in mouse liver microsomes assessed as clearance measured upto 60 mins in presence of NADPH regenerating system by LC-MS/MS analysis; assay type: ADME, Microsome; settings: read-out: CLH
# [21] = Cmax in male C57/6J mouse at 15 mg/kg, ip measured upto 24 hrs by LC-MS/MS analysis; assay type: ADME, organism-based; settings: in vivo
# Mus musculus [22] = assay: Cardioprotective activity against isoproterenol-induced myocardial injury in C57/6J mouse model assessed as reduction in cardiac swelling size at 15 mg/kg, ip pretreated with isoproterenol for 3 days followed by compound addition and measured after 3 days (reference value: 5.15 millimeter); assay type: functional; settings: time 3 day
# Mus musculus [23] = assay: Cardioprotective activity against isoproterenol-induced myocardial injury in C57/6J mouse model assessed as reduction in neutrophil count at 15 mg/kg, ip pretreated with isoproterenol for 3 days followed by compound addition and measured after 3 days; assay type: functional, organism-based; settings: time 3.0 day
# Mus musculus [24] = assay: Cardioprotective activity against isoproterenol-induced myocardial injury in C57/6J mouse model assessed as decrease in heart weight ratio at 15 mg/kg, ip pretreated with isoproterenol for 3 days followed by compound addition and measured after 3 days (reference value: 0.56 %); assay type: functional; parameters: scale not given: the % may be the effect or the level left; settings: time 3 day
# H9c2 [25] = assay: Induction of autophagy in isoproterenol-induced rat H9c2 cells assessed as downregulation of PARP1 expression by Western blot analysis; assay type: functional, cell-based
# H9c2 [26] = assay: Cytotoxicity against isoproterenol-induced rat H9c2 cells assessed as cell viability at 0.001 to 1 uM under normoxia condition by CCK-8 method; assay type: toxicity, cell-based; settings: h9c2, 1 µM, dose 0.001-1 µM
# [27] = Metabolic stability in mouse liver microsomes assessed as parent compound remaining measured after 30 mins in absence of NADPH regenerating system by LC-MS/MS analysis; assay type: ADME, Microsome; settings: read-out: Stability
# [28] = Apparent volume of distribution during terminal phase in male C57/6J mouse at 15 mg/kg, ip measured upto 24 hrs by LC-MS/MS analysis; assay type: ADME, organism-based; settings: in vivo, read-out: Vz/F
# [29] = Metabolic stability in mouse liver microsomes assessed as parent compound remaining measured after 45 mins in absence of NADPH regenerating system by LC-MS/MS analysis; assay type: ADME, Microsome; settings: read-out: Stability
# Mus musculus [30] = assay: Cardioprotective activity against isoproterenol-induced myocardial injury in C57/6J mouse model assessed as reduction in eosinophil ratio at 15 mg/kg, ip pretreated with isoproterenol for 3 days followed by compound addition and measured after 3 days; assay type: functional, organism-based; settings: time 3.0 day
# [31] = Drug uptake in lysosomes of rat H9c2 cells assessed as time required for compound concentration in lysosomes to exceed the cell lysates by HPLC analysis; assay type: ADME, subcellular, Lysosome
# [32] = Metabolic stability in mouse liver microsomes assessed as parent compound remaining measured after 60 mins in absence of NADPH regenerating system by LC-MS/MS analysis; assay type: ADME, Microsome; settings: read-out: Stability
# [33] = Metabolic stability in mouse liver microsomes assessed as half life measured upto 60 mins in presence of NADPH regenerating system by LC-MS/MS analysis; assay type: ADME, Microsome
# [34] = Tmax in male C57/6J mouse at 15 mg/kg, ip measured upto 24 hrs by LC-MS/MS analysis; assay type: ADME, organism-based; settings: in vivo
# [35] = Metabolic stability in mouse liver microsomes assessed as parent compound remaining measured after 15 mins in presence of NADPH regenerating system by LC-MS/MS analysis; assay type: ADME, Microsome; settings: read-out: Stability
# [36] = AUC infinity in male C57/6J mouse at 15 mg/kg, ip measured upto 24 hrs by LC-MS/MS analysis; assay type: ADME, organism-based; settings: in vivo
# H9c2 [37] = assay: Downregulation of mTORC1 level in isoproterenol-induced rat H9c2 cells by Western blot analysis; assay type: functional, cell-based; settings: dose 0.01-1 µM
# Mus musculus [38] = assay: Cardioprotective activity against isoproterenol-induced myocardial injury in C57/6J mouse model assessed as reduction in neutrophil ratio at 15 mg/kg, ip pretreated with isoproterenol for 3 days followed by compound addition and measured after 3 days; assay type: functional, organism-based; settings: time 3.0 day
# Mus musculus [39] = assay: Cardioprotective activity against isoproterenol-induced myocardial injury in C57/6J mouse model assessed as inhibition of collagen fiber proliferation at 15 mg/kg, ip pretreated with isoproterenol for 3 days followed by compound addition and measured after 3 days by masson staining based analysis; assay type: functional, organism-based; settings: time 3.0 day
# H9c2 [40] = assay: Induction of ATP production in isoproterenol-induced rat H9c2 cells at 0.1 micromol/L by fluorescence based analysis; assay type: functional; settings: dose 0.1 µmol/L
# [41] = Metabolic stability in mouse liver microsomes assessed as parent compound remaining measured after 30 mins in presence of NADPH regenerating system by LC-MS/MS analysis; assay type: ADME, Microsome; settings: read-out: Stability
# [42] = Dose normalized AUClast in male C57/6J mouse at 15 mg/kg, ip measured upto 24 hrs by LC-MS/MS analysis; assay type: ADME, organism-based; settings: in vivo
# H9c2 [43] = assay: Induction of apoptosis in isoproterenol-induced rat H9c2 cells assessed as early apoptotic cells at 0.1 micromol/L by annexin V-FITC and PI staining based flow cytometry analysis (reference value: 10.37%); assay type: toxicity, cell-based; settings: h9c2, 0.1 µM, dose 0.1 µmol/L
# [44] = Toxicity in isoproterenol-induced male C57/6J mouse model assessed as recovery of growth rate at 15 mg/kg, ip pretreated with isoproterenol for 3 days followed by compound addition and measured after 3 days; assay type: organism-based; settings: in vivo, 72 h, time 3 day
# Mus musculus [45] = assay: Cardioprotective activity against isoproterenol-induced myocardial injury in C57/6J mouse model assessed as reduction in pericardial thickness at 15 mg/kg, ip pretreated with isoproterenol for 3 days followed by compound addition and measured after 3 days by masson staining based analysis; assay type: functional, organism-based; settings: time 3.0 day
# [46] = Metabolic stability in mouse liver microsomes assessed as parent compound remaining measured after 45 mins in presence of NADPH regenerating system by LC-MS/MS analysis; assay type: ADME, Microsome; settings: read-out: Stability
# [47] = Passive permeability in MDCK cells; assay type: ADME, cell-based, Canis lupus familiaris; settings: dog, read-out: permeability
# [48] = Observed MRT(infinity) in male C57/6J mouse at 15 mg/kg, ip measured upto 24 hrs by LC-MS/MS analysis; assay type: ADME, organism-based; settings: in vivo
# [49] = Metabolic stability in mouse liver microsomes assessed as parent compound remaining measured after 15 mins in absence of NADPH regenerating system by LC-MS/MS analysis; assay type: ADME, Microsome; settings: read-out: Stability
# Mus musculus [50] = assay: Cardioprotective activity against isoproterenol-induced myocardial injury in C57/6J mouse model assessed as decrease in CK-MB level in serum at 15 mg/kg, ip pretreated with isoproterenol for 3 days followed by compound addition and measured after 3 days by automatic biochemical analysis; assay type: functional, organism-based; settings: time 3.0 day
# Mus musculus [51] = assay: Cardioprotective activity against isoproterenol-induced myocardial injury in C57/6J mouse model assessed as appearance of clear cell boundaries in heart at 15 mg/kg, ip pretreated with isoproterenol for 3 days followed by compound addition and measured after 3 days by H and E staining based analysis; assay type: functional, organism-based; settings: time 3.0 day
# [52] = Apparent […] clearance in male C57/6J mouse at 15 mg/kg, ip measured upto 24 hrs by LC-MS/MS analysis; assay type: ADME, organism-based; settings: in vivo
compound,measurement,setting,value
CCC(CC)O[C@@H]1C=C(C(=O)OCCN2CCOCC2)C[C@H](N)[C@H]1NC(C)=O,remaining at 1 h,[1],77.2%
same,Activity,H9c2 [2],Active
same,Activity,H9c2 [3],Active
same,Activity,Mus musculus [4],Active
same,Activity,H9c2 [5],Active
same,remaining at 0.5 min,[6],100%
same,Papp,[7],44 ×10⁻⁶ cm/s
same,Activity,H9c2 [8],Non-Toxic
same,Activity,H9c2 [9],0.15%
same,Activity,H9c2 [10],Active
same,remaining at 0.5 min,[11],100%
same,Activity,Mus musculus [12],Active
same,AUC(0-t) at 24 h,[13],2080 ng·h/mL
same,Activity,H9c2 [14],203.6
same,Activity,H9c2 [15],Active
same,Activity,Mus musculus [16],Active
same,Activity,Mus musculus [17],Active
same,Activity,Mus musculus [18],Active
same,half-life,[19],142 min
same,microsomal CLint,[20],7.53 µL/min/mg
same,Cmax,[21],2380 ng/mL
same,Activity,Mus musculus [22],4.35 mm
same,Activity,Mus musculus [23],Active
same,Activity,Mus musculus [24],0.46%
same,Activity,H9c2 [25],Active
same,Activity,H9c2 [26],Non-Toxic
same,remaining at 0.5 h,[27],109%
same,Vd/F,[28],24 L/kg
same,remaining at 0.75 h,[29],104%
same,Activity,Mus musculus [30],Active
same,Time,[31],3.43 min
same,remaining at 1 h,[32],97.2%
same,half-life,[33],184 min
same,Tmax,[34],15 min
same,remaining at 0.25 h,[35],89.9%
same,AUC(0-inf),[36],2100 ng·h/mL
same,Activity,H9c2 [37],Dose-Dependent Effect
same,Activity,Mus musculus [38],Active
same,Activity,Mus musculus [39],Active
same,Activity,H9c2 [40],48.9 nmol/mg
same,remaining at 0.5 h,[41],83.9%
same,AUClast/dose,[42],139 kg·ng·h/mL/mg
same,Activity,H9c2 [43],6.07%
same,Activity,[44],Non-Toxic
same,Activity,Mus musculus [45],Active
same,remaining at 0.75 h,[46],83%
same,Papp,[47],> 20 ×10⁻⁶ cm/s
same,MRT inf,[48],1.01 h
same,remaining at 0.25 h,[49],106%
same,Activity,Mus musculus [50],Active
same,Activity,Mus musculus [51],Active
same,CL/F,[52],120 mL/min/kg
